B1: FGF-2: fibroblast growth factor (protein, UniProt P15655 10-154, looked up)
Fibroblast growth factor 2: PALPEDGGAAFPPGHFKDPKRLYCKNGGFFLRIHPDGRVDGVREKSDPHVKLQLQAEERGVVSIKGVCANRYLAMKEDGRLLASKCVTEECFFFERLESNNYNTYRSRKYSSWYVALKRTGQYKLGSKTGPGQKAILFLPMSAKS

Tests used:
[1] = test system: 355 B-cell lymphoma cell line; test: 355 B-cell lymphoma survival model; format: in vivo; conditions: 0.1 mg/mouse i.p. on day 0, 2, 4, 8, 12, 16, 20, 24, and 28
Description: FIG. 4. is a graph showing that lymphoma stromal cells (LSCs) promote lymphoma development in a NO-dependent manner. 355 B-cell lymphoma cell line (C3H-gld/gld background, 0.5×10^6 cells/mouse) was co-injected with gld/gld mice-derived lymphoma stromal cells (C3H background, P5, 0.25×10^6 cells/mouse) by tail-vein i.v. on day 0.1400 W (NOS inhibitor, 0.1 mg/mouse) was injected on day 0, 2, 4, 8, 12, 16, 20, 24, and 28 by i.p. Mice survival was recorded when mice were moribund.
To examine the effect of lymphoma stromal cells on tumor growth, 355 B-cell lymphoma cell line (C3H-gld/gld background, 0.5×10^6 cells/mouse) was co-injected with gld/gld mice-derived lymphoma stromal cells (C3H background, P5, 0.25×10^6 cells/mouse).

splenocytes = test: Anti-CD3-activated splenocyte proliferation in co-culture with MSCs; format: cell-based, mouse
Description: FIGS. 9A, 9B, 9C, 9D, 9E, 9F and 9G. […] Cloned MSCs were first treated with the indicated combinations of recombinant cytokines IFNγ, TNFα, IL-17A (2 ng/ml each) for 12 hr, then cocultured with CD4^+ T cell blasts at a 1:20 ratio (MSC:T cells), and proliferation was assessed by 3H-thymidine incorporation after an additional 12 hr. (FIG. 9B). The mRNA expression of IL-17 receptor family members in MSCs or Raw 264.7 (Macrophages) were examined by RT-PCR. NC: No RT. (FIG. 9C). Surface expression of IL-17RA was detected by immunofluoresence or flow cytometry in cloned MSCs. (FIGS. 9D and 9E). MSCs were first treated with IFNγ and TNFα with or without IL-17A (10 ng/ml), IFNγ and TNFα were supplemented at different cytokine concentrations, for 12 hr, and then cocultured with CD4^+ T cell blasts (FIG. 9D) or T cell hybridoma A1.1 cells (FIG. 9E) at a ratio of 1:20 for 12 hr. T cell proliferation was measured by 3H-Tdr incorporation. (FIG. 9F). MSCs were first treated with IFNγ and TNFα (2 ng/ml) with graded concentrations of IL-17A, for 12 hr, and then cocultured with T cell hybridoma A1.1 cells at a ratio of 1:10 for 12 hr. T cell proliferation was measured by 3H-thymidine incorporation. (FIG. 9G). MSCs were cocultured with fresh C57BL/6 splenocytes plus anti-CD3, anti-CD28, and antibodies against IL-17A, at a 1:20 or 1:40 ratio (MSCs:splenocytes), for 48 hr, and then cell proliferation was assessed by 3H-thymidine incorporation. Proliferation values represent means±SEM of three wells from a representative of three experiments.
To examine the possibility that cytokines induce the immunosuppressive capacity of MSCs, these culture conditions were reproduced by combining MSCs and fresh splenocytes at graded ratios in the presence of anti-CD3. […] The immunosuppressive capacity of MSC clones generated from different mouse strains was also examined.
To identify the mechanism through which immunosuppression by cytokine-exposed MSCs is effected, the response of anti-CD3-activated splenocytes co-cultured with MSCs (1:20, MSC:splenocytes) in a […] system was examined in various configurations.
Nitric oxide (NO) at high concentrations is known to inhibit T cell responses. It diffuses quickly from its source, but the concentration of the active form drops off within about 100 μm.
Proliferation assay—To assay T cell proliferation, 0.5 μCi of 3H-thymidine was added to each well of 96-well plates 6 hr before termination of the cultures by freezing. Plates were then thawed, cells were harvested, and incorporated 3H-Tdr was assessed with a Wallac Microbeta scintillation counter (Perkin-Elmer, Waltham, MA).

iNOS = iNOS protein and NO production in MSCs with type I IFN or FGF-2; format: cell-based, mouse; conditions: induced by IFN γ+TNF α or IFN γ+IL-β
Text: FIGS. 17A, 17B, 17C and 17D. Type I interferons and FGF-2 down-regulate the immunosuppressive effect of MSCs through attenuation NO production. […] (FIG. 17C) FGF-2 (FGF B) inhibited the NO production which was induced by IFN γ+TNF α or IFN γ+IL-β in MSCs, reflected by nitrate content in the culture supernatants.

Row | Molecule | effect on stromal cell-enhanced mortality [1] | splenocyte proliferation in MSC co-culture with iNOS inhibitor (splenocytes; MSCs + splenocytes + anti-CD3) | NO production in MSCs (nitrate content in culture supernatants) (iNOS) | MSC-mediated immunosuppression in MSC+splenocyte+anti-CD3 system (splenocytes)
1 | CC(=N)NCc1cccc(CN)c1 [1400 W] | significantly reverted the effect | same effect |  | 
2 | B1 |  |  | inhibited | significantly reduced
